Data as given in PubChem BioAssay AID1919015 (Molecular Pharmacology Branch, DTP, NCI, 2023).
“And” between values parts separate entries of the source, which are not always exact repeats. Equal entries are not always repeated.

Tested on: OVCAR-5 complex spheroids with HUVEC/MSC, viability, % test/control
Assay: Anticancer human tumor OVCAR-5 cell line growth inhibition [AhR];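 also: spheroids exposed to compounds for 7 days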;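 as to viability, T/C: 100% = DMSO vehicle control wells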
Conditions: for viability, T/C: stronger effect = lower value
How it was run: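 Complex tumor spheroids co-cultured with HUVEC and human MSC stroma; AhR antagonists tested in combination with standard-of-care and investigational agents. Top concentration at or near clinical Cmax (else 10 microM), half-log dilutions; growth expressed as percent test/control.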

[1] = curve of first compound, second compound 0.1 µM
[2] = curve of first compound, second compound 0.316 µM
[3] = curve of first compound, second compound 1 µM
[4] = curve of first compound, second compound 3.16 µM
[5] = curve of first compound, second compound 10 µM
[6] = second compound 0.1 µM, first compound 0.0316 µM
[7] = second compound 0.1 µM, first compound 0.1 µM
[8] = second compound 0.316 µM, first compound 0.0316 µM
[9] = second compound 0.316 µM, first compound 0.1 µM
[10] = second compound 1 µM, first compound 0.0316 µM
[11] = second compound 1 µM, first compound 0.1 µM
[12] = second compound 3.16 µM, first compound 0.0316 µM
[13] = second compound 3.16 µM, first compound 0.1 µM
[14] = second compound 10 µM, first compound 0.0316 µM
[15] = second compound 10 µM, first compound 0.1 µM

`CC(C)c1c(-c2ccccc2)nc2c(C#N)c[nH]n2c1=O` + Cc1ccccc1N=Nc1ccc(NC(=O)c2ccnn2C)c(C)c1 gave an IC50 [1] greater than 10000 nM, an IC50 [2] greater than 10000 nM and an IC50 [3] greater than 10000 nM. It also gave an IC50 [4] greater than 10000 nM, an IC50 [5] greater than 10000 nM and a viability, T/C [6] of 104%. The viability, T/C [7] was 102%, the viability, T/C (second compound 0.1 µM, first compound 0.316 µM) was 101% and the viability, T/C (second compound 0.1 µM, first compound 1 µM) was 101%. For the same compound, the viability, T/C (second compound 0.1 µM, first compound 3.16 µM) was 104%, the viability, T/C (second compound 0.1 µM, first compound 10 µM) was 106% and the viability, T/C [8] was 105%. For the same compound, the viability, T/C [9] was 111%, the viability, T/C (second compound 0.316 µM, first compound 0.316 µM) was 106% and the viability, T/C (second compound 0.316 µM, first compound 1 µM) was 103%. It also gave a viability, T/C (second compound 0.316 µM, first compound 3.16 µM) of 106%, a viability, T/C (second compound 0.316 µM, first compound 10 µM) of 104% and a viability, T/C [10] of 112%. It also gave a viability, T/C [11] of 109%, a viability, T/C (second compound 1 µM, first compound 0.316 µM) of 109% and a viability, T/C (second compound 1 µM, first compound 1 µM) of 106%. The viability, T/C (second compound 1 µM, first compound 3.16 µM) was 106%, the viability, T/C (second compound 1 µM, first compound 10 µM) was 111% and the viability, T/C [12] was 112%. The viability, T/C [13] was 112%, the viability, T/C (second compound 3.16 µM, first compound 0.316 µM) was 111% and the viability, T/C (second compound 3.16 µM, first compound 1 µM) was 108%. For the same compound, the viability, T/C (second compound 3.16 µM, first compound 3.16 µM) was 111%, the viability, T/C (second compound 3.16 µM, first compound 10 µM) was 114% and the viability, T/C [14] was 108%. The viability, T/C [15] was 110%, the viability, T/C (second compound 10 µM, first compound 0.316 µM) was 108% and the viability, T/C (second compound 10 µM, first compound 1 µM) was 107%. It also gave a viability, T/C (second compound 10 µM, first compound 3.16 µM) of 104% and a viability, T/C (second compound 10 µM, first compound 10 µM) of 104%.

`O=C(C=Cn1cnc(-c2cc(C(F)(F)F)cc(C(F)(F)F)c2)n1)NNc1cnccn1` + Cc1cncc(-c2nc(NCCc3c[nH]c4ccccc34)c3ncn(C(C)C)c3n2)c1 gave an IC50 [1] of 2760 nM, an IC50 [2] greater than 3000 nM and an IC50 [3] of 2430 nM. It also gave an IC50 [4] of 1450 nM, an IC50 [5] of less than 9.49 nM and a viability, T/C (second compound 0.1 µM, first compound 0.00949 µM) of 105%. For the same compound, the viability, T/C (second compound 0.1 µM, first compound 0.03 µM) was 108%, the viability, T/C (second compound 0.1 µM, first compound 0.0949 µM) was 102% and the viability, T/C (second compound 0.1 µM, first compound 0.3 µM) was 87.4%. The viability, T/C (second compound 0.1 µM, first compound 0.949 µM) was 67.7%, the viability, T/C (second compound 0.1 µM, first compound 3 µM) was 48.4% and the viability, T/C (second compound 0.316 µM, first compound 0.00949 µM) was 107%. The viability, T/C (second compound 0.316 µM, first compound 0.03 µM) was 109%, the viability, T/C (second compound 0.316 µM, first compound 0.0949 µM) was 107% and the viability, T/C (second compound 0.316 µM, first compound 0.3 µM) was 86.4%. The viability, T/C (second compound 0.316 µM, first compound 0.949 µM) was 68.9%, the viability, T/C (second compound 0.316 µM, first compound 3 µM) was 49.8% and the viability, T/C (second compound 1 µM, first compound 0.00949 µM) was 105%. It also gave a viability, T/C (second compound 1 µM, first compound 0.03 µM) of 108%, a viability, T/C (second compound 1 µM, first compound 0.0949 µM) of 106% and a viability, T/C (second compound 1 µM, first compound 0.3 µM) of 89.4%. It also gave a viability, T/C (second compound 1 µM, first compound 0.949 µM) of 71%, a viability, T/C (second compound 1 µM, first compound 3 µM) of 45.3% and a viability, T/C (second compound 3.16 µM, first compound 0.00949 µM) of 98.1%. For the same compound, the viability, T/C (second compound 3.16 µM, first compound 0.03 µM) was 99.5%, the viability, T/C (second compound 3.16 µM, first compound 0.0949 µM) was 99.6% and the viability, T/C (second compound 3.16 µM, first compound 0.3 µM) was 79.8%. For the same compound, the viability, T/C (second compound 3.16 µM, first compound 0.949 µM) was 62%, the viability, T/C (second compound 3.16 µM, first compound 3 µM) was 31.8% and the viability, T/C (second compound 10 µM, first compound 0.00949 µM) was 16.3%. For the same compound, the viability, T/C (second compound 10 µM, first compound 0.03 µM) was 15%, the viability, T/C (second compound 10 µM, first compound 0.0949 µM) was 15.9% and the viability, T/C (second compound 10 µM, first compound 0.3 µM) was 16.4%. The viability, T/C (second compound 10 µM, first compound 0.949 µM) was 13.3% and the viability, T/C (second compound 10 µM, first compound 3 µM) was 12.6%.

For `Cn1ncnc1C1c2n[nH]c(=O)c3cc(F)cc(c23)NC1c1ccc(F)cc1` (configuration not stated) + Cc1cncc(-c2nc(NCCc3c[nH]c4ccccc34)c3ncn(C(C)C)c3n2)c1, the IC50 [1] was greater than 100 nM, the IC50 [2] was greater than 100 nM and the IC50 [3] was greater than 100 nM. The IC50 [4] was greater than 100 nM, the IC50 [5] was less than 0.316 nM and the viability, T/C (second compound 0.1 µM, first compound 0.000316 µM) was 99.4%. It also gave a viability, T/C (second compound 0.1 µM, first compound 0.001 µM) of 102%, a viability, T/C (second compound 0.1 µM, first compound 0.00316 µM) of 103% and a viability, T/C (second compound 0.1 µM, first compound 0.01 µM) of 104%. It also gave a viability, T/C [6] of 101%, a viability, T/C [7] of 99.2% and a viability, T/C (second compound 0.316 µM, first compound 0.000316 µM) of 101%. For the same compound, the viability, T/C (second compound 0.316 µM, first compound 0.001 µM) was 104%, the viability, T/C (second compound 0.316 µM, first compound 0.00316 µM) was 100% and the viability, T/C (second compound 0.316 µM, first compound 0.01 µM) was 99.2%. It also gave a viability, T/C [8] of 99.4%, a viability, T/C [9] of 95.2% and a viability, T/C (second compound 1 µM, first compound 0.000316 µM) of 98.1%. The viability, T/C (second compound 1 µM, first compound 0.001 µM) was 97.9%, the viability, T/C (second compound 1 µM, first compound 0.00316 µM) was 95.8% and the viability, T/C (second compound 1 µM, first compound 0.01 µM) was 96.4%. It also gave a viability, T/C [10] of 94.6%, a viability, T/C [11] of 93.6% and a viability, T/C (second compound 3.16 µM, first compound 0.000316 µM) of 85%. The viability, T/C (second compound 3.16 µM, first compound 0.001 µM) was 87.3%, the viability, T/C (second compound 3.16 µM, first compound 0.00316 µM) was 86.3% and the viability, T/C (second compound 3.16 µM, first compound 0.01 µM) was 87.7%. For the same compound, the viability, T/C [12] was 83.4%, the viability, T/C [13] was 89.5% and the viability, T/C (second compound 10 µM, first compound 0.000316 µM) was 26.6%. The viability, T/C (second compound 10 µM, first compound 0.001 µM) was 28.5%, the viability, T/C (second compound 10 µM, first compound 0.00316 µM) was 30.9% and the viability, T/C (second compound 10 µM, first compound 0.01 µM) was 27.2%. The viability, T/C [14] was 23% and the viability, T/C [15] was 30.7%.

`O=C(c1cc(Cc2n[nH]c(=O)c3ccccc23)ccc1F)N1CCN(C(=O)C2CC2)CC1` was tested, and the viability, T/C (compound 0.0316 µM) was 98.3% and 103% and 100%, the viability, T/C (compound 0.1 µM) was 97.6% and 99% and 96.8% and the viability, T/C (compound 0.316 µM) was 92.4% and 97.2% and 96.1%. The viability, T/C (compound 1 µM) was 93% and 93.2% and 98.6%, the viability, T/C (compound 3.16 µM) was 90.9% and 91% and 92.9% and the viability, T/C (compound 10 µM) was 83.3% and 83.5% and 84.2%. The IC50 (curve of compound) was greater than 10000 nM.
